Experimental data published in patent US20260234180A1, “AMINO ACID DERIVATIVE, PREPARATION METHOD THEREFOR, AND PHARMACEUTICAL COMPOSITION FOR TREATING HEPATITIS, COMPRISING SAME” (priority 2021, published 2026).

Biological target: T1, NTCP (Na+ taurocholate cotransporting peptide), HepG2-hNTCP-C4 cell line (Homo sapiens, UniProt Q14973)
T1 construct: expressed in transfected cells; host or cells: HepG2-hNTCP-C4 (HepG2 cells expressing human NTCP)
T1 sequence (Q14973 1-349): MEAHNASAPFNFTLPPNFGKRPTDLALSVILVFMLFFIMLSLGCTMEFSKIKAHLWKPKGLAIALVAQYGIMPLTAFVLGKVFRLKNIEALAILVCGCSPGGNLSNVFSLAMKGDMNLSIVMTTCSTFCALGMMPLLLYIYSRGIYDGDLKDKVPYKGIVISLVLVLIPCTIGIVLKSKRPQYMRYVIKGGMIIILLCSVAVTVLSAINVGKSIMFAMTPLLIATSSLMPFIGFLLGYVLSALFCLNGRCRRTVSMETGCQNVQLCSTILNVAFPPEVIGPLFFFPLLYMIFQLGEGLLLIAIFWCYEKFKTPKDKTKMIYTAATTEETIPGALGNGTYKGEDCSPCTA
Assay: Inhibition of binding between FITC-labelled PreS1 and NTCP expressing cell line, flow cytometry
Conditions: for relative fluorescence intensity compared to Comparative Example 1 (LCA) / ability to inhibit the binding between PreS1 and NTCP expressing cell lines (bile acid series): compound 50 µM; for relative fluorescence intensity compared to Comparative Example 1 (LCA): 20 nM PreS1, 4° C., 2 hours, lower = more inhibited binding; for difference in degree of competitive inhibition versus the parent bile acid Comparative Example: vs Comparative Example 5 or 6; for relative fluorescence intensity in comparison with the parent bile acid Comparative Example: vs Comparative Example 2 (UDCA), 5 (DCA) or 6 (CDCA), method as Experimental Example 1-1
Experimental: HepG2-hNTCP-C4 cell line, a cell line expressing NTCP, was seeded in a 6 well plate at a density of 2×10^5/well and incubated at 4° C. for 30 minutes when the confluency reached 80% after overnight incubation for 2 days. Thereafter, 20 nM PreS1 (Myr-GTNL […]-Lys(FITC) (SEQ ID NO: 1)) and the compounds in Example 1, Examples 38 to 56 or the compound in Comparative Example 1 were treated by diluting in culture media at 4° C. at a concentration of 50 µM respectively, and the media was suctioned after 2 hours, followed by washing 3 times with 4° C. PBS. In order to take the cells off from the plate, 500 μl of 0.5 mM EDTA PBS solution was treated, and then incubation was performed at 37° C. for 15 minutes to check whether the cells fell off through an optical microscope. After taking off the cells by pipetting, the cells were collected in a 1.5 ml tube and centrifuged (4000 rpm, 4° C., 3 min). After suctioning the supernatant, the pellet was washed 3 times with 4° C. PBS, and then green fluorescence was measured via flow cytometry. In this case, taurocholic acid (TCA), a compound known as a substrate of NTCP to reduce the entry of HBV or HDV, was used as a positive control group.
In the graph at the top of FIG. 1, black (1) and red (2) indicate a negative control group with no treatment and an HBV-induced group (HBV preS1) solely treated with PreS1, respectively. Blue (HBV preS1+HBV entry inhibitor) (3) is the fluorescence value for each of Examples or Comparative Examples, evaluated that the closer to the negative control group, the more inhibited the binding between PreS1 and the NTCP cell line.
The experimental method was the same as in the Experimental Example 1-1, and 20 nM PreS1 and each compound were treated at 4 concentrations (0.2 μM, 2 μM, 10 μM, 50 μM).
With an expectation that there is a structure-activity relationship among compounds composed of bile acid and amino acids, for each of bile acids in Comparative Example 1 (lithocholic acid, LCA), Comparative Example 2 (ursodeoxycholic acid, UDCA), Comparative Example 3 (cholic acid, CA), Comparative Example 4 (hyodeoxycholic acid, HDCA), Comparative Example 5 (deoxycholic acid, DCA), and Comparative Example 6 (chenodeoxycholic acid, CDCA), an evaluation experiment was conducted on an ability to inhibit the binding between PreS1 and NTCP expressing cell lines, and also for Examples 1 (LCA-Ile) and Example 44 (LCA-Val) as well as the compounds in Example 2 (UDCA-Ile), Example 3 (UDCA-Val), Example 6 (CA-Ile), Example 7 (CA-Val), Example 8 (HDCA-Ile), Example 9 (HDCA-Val), Example 10 (DCA-Ile), Example 11 (DCA-Val), Example 14 (CDCA-Ile), and Example 15 (CDCA-Val) in which bile acid parts (lithocholic acid) of Example 1 (LCA-Ile) and Example 44 (LCA-Val) were substituted with other types of bile acids in Comparative Examples 2 to 6, an evaluation experiment was conducted on an ability to inhibit the binding between PreS1 and NTCP expressing cell lines. The experimental method was the same as in the Experimental Example 1-1, and 18 compounds in the Comparative Examples 1 to 6, Examples 1 to 3, Examples 6 to 11, Examples 14 to 15, and Example 44 were treated at a concentration of 50 µM along with 20 nM PreS1.
In FIG. 9, an evaluation experiment was conducted to check a degree of inhibiting the binding between PreS1 and NTCP expressing cell lines for compounds in Examples 4 to 5, Examples 12 to 13, Examples 16 to 17, and Comparative Examples 2 (ursodeoxycholic acid, UDCA), Comparative Examples 5 (deoxycholic acid, DCA), and Comparative Examples 6 (chenodeoxycholic acid, CDCA) according to the present disclosure. The experimental method was the same as the Experimental Example 1-1.
In the Experimental Examples 1-4, it was determined whether there is additionally concentration dependence for Example 4 (UDCA-Trp), a compound with good inhibitory ability. […]

[1] = compared to the HBV-induced group (PreS1-FITC) solely treated with PreS1

With `C[C@H](CCC(=O)N[C@@H](Cc1cnc[nH]1)C(=O)O)[C@H]1CC[C@H]2[C@@H]3CC[C@@H]4C[C@H](O)CC[C@]4(C)[C@H]3CC[C@]12C` [Example 43, (S)-2-((R)-4-((3R,5R,8R,9S,10S,13R,14S,17R)-3-hydroxy-10,13-dimethyl-hexadecahydro-1H-cyclopenta[a]phenanthren-17-yl)pentanamido)-3-(1H-imidazol-5-yl)propanoic acid] the “relative fluorescence intensity compared to Comparative Example 1 (LCA)” value (shortened to “relative fluorescence intensity … (LCA)”) was “low”.

For `C[C@H](CCC(=O)N[C@@H](Cc1c[nH]c2ccccc12)C(=O)O)[C@H]1CC[C@H]2[C@@H]3CC[C@@H]4C[C@H](O)CC[C@]4(C)[C@H]3C[C@H](O)[C@]12C` [Example 12, (S)-2-((R)-4-((3R,5R,8R,9S,10S,12S,13R,14S,17R)-3,12-dihydroxy-10,13-dimethyl-hexadecahydro-1H-cyclopenta[a]phenanthren-17-yl)pentanamido)-3-(1H-indol-3-yl)propanoic acid], the “difference in degree of competitive inhibition versus the parent bile acid Comparative Example” value [1] was 11.6% and the “relative fluorescence intensity in comparison with the parent bile acid Comparative Example” value was “the same or lower”.

For `C[C@H](CCC(=O)N[C@@H](CCCCN)C(=O)O)[C@H]1CC[C@H]2[C@@H]3CC[C@@H]4C[C@H](O)CC[C@]4(C)[C@H]3CC[C@]12C` [Example 56, (S)-6-amino-2-((R)-4-((3R,5R,8R,9S,10S,13R,14S,17R)-3-hydroxy-10,13-dimethyl-hexadecahydro-1H-cyclopenta[a]phenanthren-17-yl)pentanamido)hexanoic acid], the “relative fluorescence intensity … (LCA)” value was “low”.

`C[C@H](CCC(=O)N1CCCC1C(=O)O)[C@H]1CC[C@H]2[C@@H]3CC[C@@H]4C[C@H](O)CC[C@]4(C)[C@H]3CC[C@]12C` (stereo partly drawn) [Example 38, 1-((R)-4-((3R,5R,8R,9S,10S,13R,14S,17R)-3-hydroxy-10,13-dimethyl-hexadecahydro-1H-cyclopenta[a]phenanthren-17-yl)pentanoyl)pyrrolidine-2-carboxylic acid] was tested, and the “relative fluorescence intensity … (LCA)” value was “low and lower”.

For `CC(C)[C@H](NC(=O)CC[C@@H](C)[C@H]1CC[C@H]2[C@@H]3C[C@H](O)[C@@H]4C[C@H](O)CC[C@]4(C)[C@H]3CC[C@]12C)C(=O)O` [Example 9, (S)-2-((R)-4-((3R,5R,6S,8S,9S,10R,13R,14S,17R)-3,6-dihydroxy-10,13-dimethyl-hexadecahydro-1H-cyclopenta[a]phenanthren-17-yl)pentanamido)-3-methylbutanoic acid], the “ability to inhibit the binding between PreS1 and NTCP expressing cell lines (bile acid series)” value (20 nM PreS1) was “relatively excellent”.

With `C[C@H](CCC(=O)N[C@@H](Cc1ccc(O)cc1)C(=O)O)[C@H]1CC[C@H]2[C@@H]3CC[C@@H]4C[C@H](O)CC[C@]4(C)[C@H]3C[C@H](O)[C@]12C` [Example 13, (S)-2-((R)-4-((3R,5R,8R,9S,10S,12S,13R,14S,17R)-3,12-dihydroxy-10,13-dimethyl-hexadecahydro-1H-cyclopenta[a]phenanthren-17-yl)pentanamido)-3-(4-hydroxyphenyl)propanoic acid] the “relative fluorescence intensity in comparison with the parent bile acid Comparative Example” value was “the same or lower”.

`C[C@H](CCC(=O)N[C@@H](Cc1ccccc1)C(=O)O)[C@H]1CC[C@H]2[C@@H]3CC[C@@H]4C[C@H](O)CC[C@]4(C)[C@H]3CC[C@]12C` [Example 49, (S)-2-((R)-4-((3R,5R,8R,9S,10S,13R,14S,17R)-3-hydroxy-10,13-dimethyl-hexadecahydro-1H-cyclopenta[a]phenanthren-17-yl)pentanamido)-3-phenylpropanoic acid] was tested, and the “relative fluorescence intensity … (LCA)” value was “low”.

With `C[C@H](CCC(=O)N[C@@H](Cc1ccc(O)cc1)C(=O)O)[C@H]1CC[C@H]2[C@@H]3[C@H](O)C[C@@H]4C[C@H](O)CC[C@]4(C)[C@H]3CC[C@]12C` [Example 17, (S)-2-((R)-4-((3R,5S,7R,8R,9S,10S,13R,14S,17R)-3,7-dihydroxy-10,13-dimethyl-hexadecahydro-1H-cyclopenta[a]phenanthren-17-yl)pentanamido)-3-(4-hydroxyphenyl)propanoic acid] the “relative fluorescence intensity in comparison with the parent bile acid Comparative Example” value was “low”.

With `C[C@H](CCC(=O)N[C@@H](CS)C(=O)O)[C@H]1CC[C@H]2[C@@H]3CC[C@@H]4C[C@H](O)CC[C@]4(C)[C@H]3CC[C@]12C` [Example 40, (R)-2-((R)-4-((3R,5R,8R,9S,10S,13R,14S,17R)-3-hydroxy-10,13-dimethyl-hexadecahydro-1H-cyclopenta[a]phenanthren-17-yl)pentanamido)-3-mercaptopropanoic acid] the “relative fluorescence intensity … (LCA)” value was “low and lower”.

In the case of `CC[C@@H](C)[C@H](NC(=O)CC[C@@H](C)[C@H]1CC[C@H]2[C@@H]3[C@H](O)C[C@@H]4C[C@H](O)CC[C@]4(C)[C@H]3CC[C@]12C)C(=O)O` [Example 14, (2S,3R)-2-((R)-4-((3R,5S,7R,8R,9S,10S,13R,14S,17R)-3,7-dihydroxy-10,13-dimethyl-hexadecahydro-1H-cyclopenta[a]phenanthren-17-yl)pentanamido)-3-methylpentanoic acid], the “ability to inhibit the binding between PreS1 and NTCP expressing cell lines (bile acid series)” value (20 nM PreS1) is reported as “relatively excellent”.

In the case of `C[C@H](CCC(=O)N[C@@H](Cc1c[nH]c2ccccc12)C(=O)O)[C@H]1CC[C@H]2[C@@H]3[C@H](O)C[C@@H]4C[C@H](O)CC[C@]4(C)[C@H]3CC[C@]12C` [Example 16, (S)-2-((R)-4-((3R,5S,7R,8R,9S,10S,13R,14S,17R)-3,7-dihydroxy-10,13-dimethyl-hexadecahydro-1H-cyclopenta[a]phenanthren-17-yl)pentanamido)-3-(1H-indol-3-yl)propanoic acid], the “difference in degree of competitive inhibition versus the parent bile acid Comparative Example” value [1] is reported as 17.8% and the “relative fluorescence intensity in comparison with the parent bile acid Comparative Example” value is reported as “low”.

In the case of `C[C@H](CCC(=O)N[C@@H](Cc1c[nH]c2ccccc12)C(=O)O)[C@H]1CC[C@H]2[C@@H]3[C@@H](O)C[C@@H]4C[C@H](O)CC[C@]4(C)[C@H]3CC[C@]12C` [Example 4, (S)-2-((R)-4-((3R,5S,7S,8R,9S,10S,13R,14S,17R)-3,7-dihydroxy-10,13-dimethyl-hexadecahydro-1H-cyclopenta[a]phenanthren-17-yl)pentanamido)-3-(1H-indol-3-yl)propanoic acid], the “effect of inhibiting the binding between PreS1 and NTCP expressing cell lines by treatment concentration” value (2 μM, 10 μM, 20 μM, 50 μM, 20 nM PreS1) is reported as “concentration dependent”, the “difference in degree of competitive inhibition versus Comparative Example 2 (UDCA)” value [1] is reported as “about 2 times” and the “relative fluorescence intensity in comparison with the parent bile acid Comparative Example” value is reported as “low”.
